{"source": "paper PMC12298237", "about": "(Marine Drugs, 2025)", "type_in_all_cases": "cell-based, human", "key": {"[1]": {"system": "phosphorylated ERK1/2 (p-ERK) in DLD-1 cells", "experiment": "Western blot of phosphorylated ERK1/2", "conditions": "DLD-1, 9 and 18 μM, 24 h", "procedure": "(§1) Western blotting was performed as previously described. […] Cells were washed twice with PBS and lysed in RIPA buffer (Beyotime Biotechnology, Jiangsu, China) on ice for 30 min. Lysates were centrifuged at 12,000 rpm for 20 min at 4 °C, and the supernatant containing total protein was collected. Equal amounts of protein were separated by SDS-PAGE and transferred onto polyvinylidene fluoride (PVDF) membranes. Membranes were blocked with 5% non-fat milk at room temperature for 1 h, followed by incubation with the appropriate primary and secondary antibodies. Protein bands were visualized using the Omni-ECL Femto Light Chemiluminescence Kit (Epizyme, Shanghai, China) and imaged with the Amersham Imager 680 (Cytiva, Marlborough, MA, USA)."}, "[2]": {"system": "phosphorylated ERK1/2 (p-ERK) in HT-29 cells", "experiment": "Western blot of phosphorylated ERK1/2", "conditions": "HT-29, 9 and 18 μM, 24 h", "procedure": "as §1"}, "[3]": {"system": "HT-29 cells", "experiment": "Cell cycle analysis by flow cytometry (PI)", "conditions": "HT-29, 24 h of exposure, in words", "procedure": "(§2) Following treatment, cells were collected, washed, and fixed in 75% pre-chilled ethanol at −20 °C for 24 h. After fixation, cells were centrifuged, washed twice with cold PBS, and stained with propidium iodide (PI, 0.1 mg/mL) in the presence of RNase A (0.1 mg/mL) at 37 °C for 30 min. Cell cycle distribution was analyzed by flow cytometry (LSRFortessa, BD, Canton, MA, USA). To enhance the clarity of the results, cell populations were selectively gated using the ModFit LT 5.0 software."}, "[4]": {"system": "DLD-1 cells", "experiment": "Cell cycle analysis by flow cytometry (PI)", "conditions": "DLD-1, 24 h of exposure, in words", "procedure": "as §2"}, "[5]": {"system": "HT-29 cells", "experiment": "Colony formation assay", "conditions": "HT-29, 9 or 18 μM, two weeks, crystal violet, vs untreated control, n = 3", "procedure": "(§3) For colony formation assays, DLD-1 and HT-29 cells were seeded into 6-well plates at a density of 800 cells per well. […] The culture medium was refreshed every four days. After two weeks of continuous culture, colonies were fixed with 4% paraformaldehyde for 15 min and subsequently stained with crystal violet solution (Yuanye, Shanghai, China) for 20 min. Colony formation was quantified using ImageJ 1.54g software."}, "[6]": {"system": "DLD-1 cells", "experiment": "Colony formation assay", "conditions": "DLD-1, 9 or 18 μM, two weeks, crystal violet, vs untreated control, n = 3", "procedure": "as §3"}, "[7]": {"system": "HT-29 cells", "experiment": "Calcein-AM/PI staining assay", "conditions": "HT-29, 18 μM, 0, 6, 12 and 18 h, fluorescence microscopy", "procedure": "(§4) For the Calcein-AM/PI staining assay, DLD-1 and HT-29 cells were seeded in 24-well plates at 5 × 10^4 cells per well. […] After incubation for 0, 6, 12, and 18 h, cells were stained by using the calcein AM (MedChem Express (Monmouth Junction, NJ, USA), 5 μM) and propidium iodide (MedChem Express, 50 μg/mL). The cells were incubated in the dark at 37 °C for 30 min, followed by imaging with an inverted fluorescence microscope."}, "[8]": {"system": "DLD-1 cells", "experiment": "Calcein-AM/PI staining assay", "conditions": "DLD-1, 18 μM, 0, 6, 12 and 18 h, fluorescence microscopy", "procedure": "as §4"}}, "note": "Where a SMILES comes first, the peptide text is derived from it. [ ]: non-standard residue; d: D form. The star is where a group is joined. Leu(ol) = CC(C)C[C@H](N)CO; dIva = CC[C@@](C)(N)C(=O)O; Octanoyl = CCCCCCCC(=O)*", "data": [{"smiles": "CCCCCCCC(=O)NCC(=O)N[C@@H](Cc1ccccc1)C(=O)N[C@@H](CC(C)C)C(=O)N[C@](C)(CC)C(=O)N[C@@H](C)C(=O)N[C@@H](CC(C)C)C(=O)N[C@H](CO)CC(C)C", "note": "[Compound 1, lipotrichaibol A] (Octanoyl-GFL[dIva]AL[Leu(ol)])", "values": [{"measurement": "levels of phosphorylated ERK1/2 (p-ERK)", "setting": "[1]", "result": "significantly reduced"}, {"measurement": "levels of phosphorylated ERK1/2 (p-ERK)", "setting": "[2]", "result": "significantly reduced"}, {"measurement": "proportion of cells in the G0/G1 phase", "setting": "[3]", "result": "significant increase"}, {"measurement": "proportion of cells in the G0/G1 phase", "setting": "[4]", "result": "significant increase"}, {"measurement": "number of colony-forming cells", "setting": "[5]", "result": "markedly reduced"}, {"measurement": "number of colony-forming cells", "setting": "[6]", "result": "markedly reduced"}, {"measurement": "cell proliferation and dead cells (Calcein-AM/PI staining)", "setting": "[7]", "result": "pronounced reduction in cell proliferation"}, {"measurement": "cell proliferation and dead cells (Calcein-AM/PI staining)", "setting": "[8]", "result": "pronounced reduction in cell proliferation"}]}]}
